Test results as given in US11813355B2, “Curcumin-loaded nanoemulsions, method of manufacture, and method of preventive treatment using the same” (UNIVERSIDAD DE CHILE, priority 2016, dated 2023).
Converted amounts (≈) assume the structure as drawn.

Assays:
B16F10 (murine melanoma) = conditions: B16F10, 48-hour exposure; read-out: CI50 (the source's name); cited from earlier work
[1] = test system: uterine cervical cancer cell line HeLa; test: Viability assay (CellTiter 96 MTS), HeLa cells; assay type: cell-based, human
Procedure: To further determine the effect of the formulation on cell viability, the calorimetric method of tetrazolium salt reduction (CellTiter 96®) was used to establish a linear relationship between the number of metabolically active cells and the absorption intensity. […] 2500 HeLa cells were seeded per well, in a 96-well microplate, and the cells were incubated with 100 μL of Dulbecco's Modified Eagle Medium (DMEM) culture medium enriched with 10% fetal bovine serum (FBS), at 37° C. and 5% CO2. The day after seeding, the 100 μL of medium was removed, and it was replaced by 80 μL of clean culture medium. Then 20 μL of a treatment was applied, and the cells were incubated under the same temperature and CO2 conditions. 24 hours after the treatment was applied, the treatment was removed, the cells were subsequently washed three (3) times with phosphate-buffered saline (PBS), and 80 μL of medium without indicator was added to the cells and 20 μL of MTS. The cells were incubated for 1 hour, and the absorbance was measured at a wavelength of 490 nm in a microplate reader. […] Each assay was performed in triplicate. In addition, within each assay the same treatment was applied to a minimum of 5 wells.

[2] = test system: Metastatic B16F10 murine melanoma cells; test: Viability assay (MTS), B16F10 cells; assay type: cell-based; conditions: Mus musculus, B16-F10, B16F10, 24 h treatment, read-out: IC50, decrease of proliferation/viability
Procedure: Metastatic B16F10 murine melanoma cells were cultured in RPMI 1640 (Roswell Park Memorial Institute) supplemented with 10% FBS, 2 mM glutamine, and antibiotics (100 U/mL penicillin and 100 μg/mL streptomycin) at 37° C. in 5% CO2.
The cultured metastatic B16F10 murine melanoma cells and cultured human embryonic kidney cells (HEK293T) were seeded in 96-well plates at a density of 1×10^4 cells per well and incubated for 24 h in culture medium. […] 2% Sodium dodecyl sulfate (SDS) and a standard cell medium were used as positive and negative cell controls, respectively. Cell proliferation was evaluated by the MTS® assay, according to the manufacturer's (Promega, Madison, WI) instructions. Absorbance was evaluated at 490 nm removing any background absorbance (620 nm) in plate reader (Tecan Infinite 200 pro NanoQuant).

[3] = test system: Molt4 (human acute lymphoblastic leukemia); conditions: Molt4, 48-hour exposure; read-out: CI50 (the source's name); cited from earlier work
HeLa = conditions: read-out: CI50 (the source's name); cited from earlier work
[4] = Persistence of curcumin fluorescence at the treatment site after tumor excision; assay type: in vivo, mice; conditions: post-surgery
[5] = test system: HL-60 (promyelocytic leukemia); conditions: HL-60, 48-hour exposure; read-out: CI50 (the source's name); cited from earlier work
[6] = test system: U937 (monoblastic leukemia); conditions: U937, 48-hour exposure; read-out: CI50 (the source's name); cited from earlier work
K562 (erythroleukemia) = conditions: K562, 48-hour exposure; read-out: CI50 (the source's name); cited from earlier work
B16F10 cells = test: Matrigel invasion assay; assay type: cell-based, murine; conditions: normalized to untreated control
Procedure: B16F10 cells (5×10^4) were seeded, allowed to grow for 24 h, and treated with CUR-NEM, CUR and controls. Then, serum-starved cells (2×10^5) were seeded (24 h) over 8 μm-porous inserts covered with Matrigel (Matrigel Invasion Chamber 8.0 lm; BD Biosciences Bedford, MA, USA). […] The membranes were mounted in Mowiol, and observed under a light microscope. At least 10 fields were evaluated (at 40× magnification) to determine the number of cells per field. The values obtained were normalized to those obtained for cells without treatment (control). Averages of values from three independent experiments are shown (mean±SEM). Statistically significant differences compared with the corresponding control group are indicated (**P<0.001; ****<0.0001). Metastasis is a complex process that is known to require migration and invasion of malignant cells.

SMILES: COc1cc(C=CC(=O)CC(=O)C=Cc2ccc(O)c(OC)c2)ccc1O [curcumin, 1,7-bis(4-hydroxy-3methoxyphenyl)-1,6-heptadien-3,5-dione]
- IC50 (B16F10 (murine melanoma)): ~3.5 µM
- IC50 ([1]; Homo sapiens, 24-hour exposure, MTS, read-out: CI50 (the source's name)): 61.8 ± 18.1 µM
- Concentration of maximum effectiveness (cytotoxicity) ([1]; after 24-hour exposure): 50 µM
- IC50 [2]: 34.8 ± 7.5 µg/mL (≈ 94.5 µM)
- IC50 [3]: ~14.4 µM
- IC50 (HeLa): 13.3 µM
- Curcumin fluorescence over basal levels, four (4) days after treatment [4]: not detectable
- IC50 [5]: ~15.7 µM
- IC50 [6]: ~30.1 µM
- IC50 (K562 (erythroleukemia)): ~38.7 µM
- Reduction in invasiveness (B16F10 cells): 10 fold
